From patent US20220154296A1, “USE OF ANTI-PD-1 ANTIBODY IN PREPARATION OF MEDICAMENT FOR TREATING SOLID TUMORS” (Shanghai Junshi Biosciences Co., Ltd., priority 2019, published 2022)

How the values were obtained:
advanced ESCC = test: Phase Ib/II clinical trial, anti-tumor activity study (RECIST v1.1), with biomarker subgroups; format: in vivo, human
Procedure: From Mar. 9, 2017 to Aug.
PD-L1 was detected in formalin-fixed paraffin-embedded (FFPE) tumor tissue samples by immunohistochemistry (IHC) methods and verified on the VENTANA Benchmark Ultra system at the clinical center laboratory (Q2 laboratory, Beijing). The immunohistochemistry detection of PD-L1 was performed using the Spring Bioscience (Roche) rabbit anti-human PD-L1 monoclonal antibody (clone SP142, Cat No: M4422). The expression of PD-L1 on tumor cells (TCs) and tumor infiltrating immune cells (ICs) was assessed by certified pathologists using stained tumor tissue. The PD-L1 positive status is defined as the presence of tumor cells with membrane staining intensity ≥1% or the presence of PD-LI staining intensity of tumor infiltrating immune cells covering ≥1% of related, continuous pen-cancerous stromal tumor area in the tumor occupied by tumor cells.
During the clinical trial described in Example 1, tumor biopsy samples from 50 subjects were subjected to whole exome sequencing (WES). TMB was determined by analyzing somatic mutations within coding regions of the human genome.

CT-26 cells = test: Inhibitory effect on tumor growth in CT-26 cell-transplanted B-hPD-1 mice; format: in vivo
Procedure: CT-26 cells were seeded subcutaneously on the right side of hPD-1 humanized female mice at a concentration of 2.5×10^5 cells/0.1 mL, and the mice were randomly grouped by tumor volume when tumors grew to about 93 mm^3 with 7 mice per group, for a total of 4 groups:
G1: Anti-KLH hIgG4 (1 mg/kg) negative control group;
G3: palbociclib (100 mg/kg);
The experiment was ended 11 days after the first administration. Tumor volume and body weight of mice were measured and recorded twice a week. At the end of the experiment, animals were euthanized and tumor growth inhibition (TGITv%) was calculated.

[1] = 59 patients, investigator-assessed RECIST v1.1
[2] = patients with 11q13 amplification (n=24)
[3] = patients with low or no PD-L1 expression (5% cutoff)
[4] = patients without 11q13 amplification (n=26)
[5] = subjects with more than 5% PD-L1 expression
[6] = without vs. with 11q13 amplification

Substance: toripalimab: humanized IgG4 anti-PD-1 mAb comprising light and heavy chain amino acid sequences set forth in SEQ ID NOs: 9 and 10 (WO2014206107)
- ORR confirmed (advanced ESCC; 59 patients): 15.3%
- DCR (advanced ESCC; 59 patients, RECIST v1.1): 47.5%
- Optimal response rate (advanced ESCC; 59 patients, RECIST v1.1): 18.6%
- CR (advanced ESCC; [1]): 1 case
- PR (including 2 cases of undiagnosed PR) (advanced ESCC; [1]): 10 cases
- Subjects who had died (advanced ESCC; 59 subjects, as of Dec. 31, 2018): 67.8%
- Median PFS (advanced ESCC; PD-L1 negative subjects): 2.0 months
- ORR (advanced ESCC; PD-L1 negative subjects): 18.4%
- OS (advanced ESCC; PD-L1 negative subjects): 6.9 months
- OS (advanced ESCC; PD-L1 positive patients): 6.7 months
- ORR (advanced ESCC; PD-L1 positive patients (≥1% TC or IC, SP142 IHC)): 15.8%
- Median PFS (advanced ESCC; PD-L1 positive subjects): 3.4 months
- OR (advanced ESCC; TMB equal to or greater than 12 mutations/Mb (n=11)): 18.2%
- OR (advanced ESCC; TMB less than 12 mutations/Mb (n=36)): 19.4%
- Optimal response (%) (advanced ESCC; Total, 59 people): 18.6%
- Mean response time (advanced ESCC; all patients): 1.8 months
- Median OS (advanced ESCC; all patients): 6.9 months
- Median PFS (advanced ESCC; all patients): 2.1 months
- Median duration of response (advanced ESCC; all patients): 11.2 months
- Subjects with arbitrary size reduction in target lesions relative to baseline (advanced ESCC; all patients): 42.4%
- OS (advanced ESCC; high TMB (≥12)): 11.5 months
- PFS (advanced ESCC; high TMB (≥12)): 4.0 months
- OS (advanced ESCC; low TMB (<12)): 6.7 months
- PFS (advanced ESCC; low TMB (<12)): 1.9 months
- Median OS (advanced ESCC; patients with 11q13 amplification): 5.6 months
- Objective response rate (advanced ESCC; [2]): 42
- PFS (advanced ESCC; [2]): 1.0 month
- DCR (advanced ESCC; [3]): 42.3%
- ORR (advanced ESCC; [3]): 15.4%
- Median OS (advanced ESCC; patients without 11q13 amplification): 11.5 months
- Objective response rate (advanced ESCC; [4]): 30.8%
- PFS (advanced ESCC; [4]): 3.7 months
- Optimal response (%) (advanced ESCC; subgroup Age >60, 29 people): 20.7%
- Optimal response (%) (advanced ESCC; subgroup Age ≤60, 30 people): 16.7%
- Optimal response (%) (advanced ESCC; subgroup ECOG 0, 5 people): 40.0%
- Optimal response (%) (advanced ESCC; subgroup ECOG 1, 54 people): 16.7%
- Optimal response (%) (advanced ESCC; subgroup LDH >ULN, 14 people): 28.6%
- Optimal response (%) (advanced ESCC; subgroup LDH Normal, 45 people): 15.6%
- Optimal response (%) (advanced ESCC; subgroup Liver metastasis No, 43 people): 18.6%
- Optimal response (%) (advanced ESCC; subgroup Liver metastasis Yes, 16 people): 18.8%
- Optimal response (%) (advanced ESCC; subgroup Prior treatment 1, 13 people): 15.4%
- Optimal response (%) (advanced ESCC; subgroup Prior treatment 2, 19 people): 15.8%
- Optimal response (%) (advanced ESCC; subgroup Prior treatment 3+, 27 people): 22.2%
- Optimal response (%) (advanced ESCC; subgroup Sex Female, 7 people): 14.3%
- Optimal response (%) (advanced ESCC; subgroup Sex Male, 52 people): 19.2%
- Optimal response (%) (advanced ESCC; subgroup Tumor volume (baseline target lesion) >100 mm, 13 people): 15.4%
- Optimal response (%) (advanced ESCC; subgroup Tumor volume (baseline target lesion) ≤100 mm, 46 people): 19.6%
- DCR (advanced ESCC; [5]): 100%
- ORR (advanced ESCC; [5]): 40%
- HR for OS (advanced ESCC; [6]): 0.60
- HR for PFS (advanced ESCC; [6]): 0.47
- TGI (%) (CT-26 cells; 11 days after the first administration, toripalimab 1 mg/kg i.p., palbociclib 100 mg/kg orally): 8.0%
- Tumor volume 11 days after the first administration (CT-26 cells; mean ± standard error, toripalimab 1 mg/kg i.p. twice a week, palbociclib 100 mg/kg orally once a day, 7 mice per group): 2519 ± 320 mm^3
